ChEMBL document CHEMBL4354805, “Discovery of MK-8719, a Potent O-GlcNAcase Inhibitor as a Potential Treatment for Tauopathies” (J Med Chem, 2019)

What was measured:
[1] = AUC (0 to 24 hrs) in rat brain at 10 mg/kg, po measured upto 24 hrs; type: ADME, organism-based; parameters: dose 10 mg/kg, time < 24 hr, route oral; details: in vivo
Rattus norvegicus [2] = test: Increase in O-protein AUC in rat brain at 10 mg/kg, po measured upto 24 hrs; type: ADME, organism-based; details: in vivo
Rattus norvegicus [3] = test: Elevation of O-protein in rat brain at 10 mg/kg, po measured after 24 hrs; type: functional
[4] = Tmax in rat brain at 10 mg/kg, po measured upto 24 hrs; type: ADME, organism-based
MDR1 = test: Apparent permeability in pig LLC-PK1 cells transfected with MDR1; type: ADME, cell-based, Sus scrofa
[5] = Fraction unbound in human plasma at 2.5 uM by equilibrium dialysis; type: ADME, cell-free
Protein O-GlcNAcase [6] = molecular target: T1, Protein O-GlcNAcase (Homo sapiens, UniProt O60502); test: Inhibition of recombinant human OGA
T1 sequence (O60502 whole entry): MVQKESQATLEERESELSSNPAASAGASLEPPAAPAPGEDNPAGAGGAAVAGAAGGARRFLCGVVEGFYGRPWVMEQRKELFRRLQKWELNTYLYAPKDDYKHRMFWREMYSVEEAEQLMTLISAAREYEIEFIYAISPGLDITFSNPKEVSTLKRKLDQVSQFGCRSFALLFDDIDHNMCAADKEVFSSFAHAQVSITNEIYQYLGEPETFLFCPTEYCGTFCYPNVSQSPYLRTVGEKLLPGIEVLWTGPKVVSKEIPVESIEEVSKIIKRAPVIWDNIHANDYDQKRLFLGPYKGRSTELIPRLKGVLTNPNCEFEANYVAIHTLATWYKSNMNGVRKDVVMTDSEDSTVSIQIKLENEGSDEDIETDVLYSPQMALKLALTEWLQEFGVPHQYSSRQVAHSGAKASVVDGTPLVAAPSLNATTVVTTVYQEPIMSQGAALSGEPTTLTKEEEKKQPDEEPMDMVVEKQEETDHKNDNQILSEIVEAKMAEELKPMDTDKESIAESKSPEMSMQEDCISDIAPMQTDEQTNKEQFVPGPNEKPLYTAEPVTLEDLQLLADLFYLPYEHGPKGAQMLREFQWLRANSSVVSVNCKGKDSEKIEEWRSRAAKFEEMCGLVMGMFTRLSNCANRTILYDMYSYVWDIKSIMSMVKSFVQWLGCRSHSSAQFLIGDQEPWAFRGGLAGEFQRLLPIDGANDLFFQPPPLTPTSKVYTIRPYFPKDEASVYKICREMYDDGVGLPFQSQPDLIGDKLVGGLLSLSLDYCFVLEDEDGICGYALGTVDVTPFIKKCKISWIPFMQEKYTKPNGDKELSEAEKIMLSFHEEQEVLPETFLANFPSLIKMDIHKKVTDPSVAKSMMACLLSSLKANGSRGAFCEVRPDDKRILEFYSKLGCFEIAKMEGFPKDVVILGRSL

Protein O-GlcNAcase [7] = molecular target: T2, Protein O-GlcNAcase (Rattus norvegicus, UniProt Q8VIJ5); test: Inhibition of OGA in rat PC12 cells assessed as OGlcNAcylated protein level incubated for 24 hrs by ELISA; type: cell-based
T2 sequence (Q8VIJ5 whole entry): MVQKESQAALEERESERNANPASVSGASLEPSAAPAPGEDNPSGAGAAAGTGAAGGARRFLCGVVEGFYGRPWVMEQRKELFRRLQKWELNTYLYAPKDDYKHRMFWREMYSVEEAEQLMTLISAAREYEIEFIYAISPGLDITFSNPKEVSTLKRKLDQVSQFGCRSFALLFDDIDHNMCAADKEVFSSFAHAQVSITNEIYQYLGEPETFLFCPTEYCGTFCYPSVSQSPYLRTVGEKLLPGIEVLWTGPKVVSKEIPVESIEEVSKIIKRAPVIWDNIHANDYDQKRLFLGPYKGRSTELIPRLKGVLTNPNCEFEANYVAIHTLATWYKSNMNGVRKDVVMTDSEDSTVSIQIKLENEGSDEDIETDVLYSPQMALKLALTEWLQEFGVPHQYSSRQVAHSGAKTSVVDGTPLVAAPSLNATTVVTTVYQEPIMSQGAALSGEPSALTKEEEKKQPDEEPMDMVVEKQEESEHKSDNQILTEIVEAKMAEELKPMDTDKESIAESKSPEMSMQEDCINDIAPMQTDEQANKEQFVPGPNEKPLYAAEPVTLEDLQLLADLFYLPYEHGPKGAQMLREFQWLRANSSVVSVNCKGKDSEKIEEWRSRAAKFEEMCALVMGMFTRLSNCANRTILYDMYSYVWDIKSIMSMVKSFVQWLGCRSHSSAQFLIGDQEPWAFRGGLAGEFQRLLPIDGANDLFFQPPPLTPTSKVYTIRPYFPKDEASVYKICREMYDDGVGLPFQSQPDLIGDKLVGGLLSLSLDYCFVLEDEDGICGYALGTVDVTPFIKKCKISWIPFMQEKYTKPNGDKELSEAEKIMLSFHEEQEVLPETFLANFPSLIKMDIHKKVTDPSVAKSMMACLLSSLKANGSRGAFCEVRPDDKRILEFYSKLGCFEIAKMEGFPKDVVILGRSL

[8] = molecular target: T3, Beta-hexosaminidase subunit beta (Homo sapiens, UniProt P07686); test: Inhibition of human beta hexosaminidase assessed as inhibitory constant using 4-methylumbelliferyl N-acetyl-beta-D-glucosaminide dihydrate as substrate measured every 60 sec for 45 mins by fluorescence spectrophotometry
T3 sequence (P07686 whole entry): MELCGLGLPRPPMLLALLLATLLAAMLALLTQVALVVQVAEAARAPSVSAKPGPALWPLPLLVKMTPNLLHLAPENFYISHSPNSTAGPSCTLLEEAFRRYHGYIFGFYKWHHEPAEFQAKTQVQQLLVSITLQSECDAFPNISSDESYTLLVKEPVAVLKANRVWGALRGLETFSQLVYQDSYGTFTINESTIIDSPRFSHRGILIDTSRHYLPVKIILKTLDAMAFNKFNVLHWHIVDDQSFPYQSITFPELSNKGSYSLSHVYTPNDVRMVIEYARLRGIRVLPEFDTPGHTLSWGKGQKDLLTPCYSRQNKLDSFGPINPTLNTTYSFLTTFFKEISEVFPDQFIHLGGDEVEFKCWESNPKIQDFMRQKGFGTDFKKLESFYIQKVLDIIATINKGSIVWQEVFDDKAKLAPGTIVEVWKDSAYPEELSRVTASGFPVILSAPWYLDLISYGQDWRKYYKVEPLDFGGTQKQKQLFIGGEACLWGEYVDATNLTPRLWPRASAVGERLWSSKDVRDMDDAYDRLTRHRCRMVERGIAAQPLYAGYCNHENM

[9] = Fraction unbound in Wistar Han rat plasma at 2.5 uM by equilibrium dialysis; type: ADME, cell-free
[10] = AUCN in Wistar Han rat at 3 mg/kg, po; type: ADME, organism-based; details: in vivo
[11] = Clearance in Wistar Han rat at 2 mg/kg, iv; type: ADME, organism-based; details: in vivo
[12] = Half life in Wistar Han rat at 2 mg/kg, iv; type: ADME, organism-based; details: in vivo
[13] = Volume of distribution at steady state in Wistar Han rat at 2 mg/kg, iv or 3 mg/kg, po; type: ADME, organism-based; details: in vivo, read-out: Vdss
[14] = Oral bioavailability in Wistar Han rat at 3 mg/kg; type: ADME, organism-based; details: in vivo
Rattus norvegicus [15] = test: Elevation of O-protein in rat brain at 3 mg/kg, po measured after 8 hrs relative to control; type: functional
Rattus norvegicus [16] = test: Elevation of O-protein in rat brain at 3 mg/kg, po measured after 24 hrs relative to control; type: functional
[17] = Drug uptake in rat brain at 3 mg/kg, po measured after 8 hrs; type: ADME, organism-based; details: in vivo
[18] = Drug uptake in rat brain at 3 mg/kg, po measured after 24 hrs; type: ADME, organism-based; details: in vivo
[19] = Ratio of drug uptake in rat brain to plasma at 3 mg/kg, po measured after 8 hrs; type: ADME, organism-based; details: read-out: BPR
[20] = Ratio of drug uptake in rat brain to plasma at 3 mg/kg, po measured after 24 hrs; type: ADME, organism-based; details: read-out: BPR
[21] = Ratio of Cmax in brain to plasma in rat at 10 mg/kg, po; type: ADME, organism-based
[22] = AUCN in Wistar Han rat at 10 mg/kg, po; type: ADME, organism-based; details: in vivo
[23] = Volume of distribution at steady state in Wistar Han rat at 2 mg/kg, iv or 10 mg/kg, po; type: ADME, organism-based; details: in vivo, read-out: Vdss
[24] = Oral bioavailability in Wistar Han rat at 10 mg/kg; type: ADME, organism-based; details: in vivo
[25] = molecular target: Voltage-gated inwardly rectifying potassium channel KCNH2 (Homo sapiens, UniProt Q12809); test: Displacement of MK-0499 from human ERG
Chain of Voltage-gated inwardly rectifying potassium channel KCNH2 (Q12809 whole entry): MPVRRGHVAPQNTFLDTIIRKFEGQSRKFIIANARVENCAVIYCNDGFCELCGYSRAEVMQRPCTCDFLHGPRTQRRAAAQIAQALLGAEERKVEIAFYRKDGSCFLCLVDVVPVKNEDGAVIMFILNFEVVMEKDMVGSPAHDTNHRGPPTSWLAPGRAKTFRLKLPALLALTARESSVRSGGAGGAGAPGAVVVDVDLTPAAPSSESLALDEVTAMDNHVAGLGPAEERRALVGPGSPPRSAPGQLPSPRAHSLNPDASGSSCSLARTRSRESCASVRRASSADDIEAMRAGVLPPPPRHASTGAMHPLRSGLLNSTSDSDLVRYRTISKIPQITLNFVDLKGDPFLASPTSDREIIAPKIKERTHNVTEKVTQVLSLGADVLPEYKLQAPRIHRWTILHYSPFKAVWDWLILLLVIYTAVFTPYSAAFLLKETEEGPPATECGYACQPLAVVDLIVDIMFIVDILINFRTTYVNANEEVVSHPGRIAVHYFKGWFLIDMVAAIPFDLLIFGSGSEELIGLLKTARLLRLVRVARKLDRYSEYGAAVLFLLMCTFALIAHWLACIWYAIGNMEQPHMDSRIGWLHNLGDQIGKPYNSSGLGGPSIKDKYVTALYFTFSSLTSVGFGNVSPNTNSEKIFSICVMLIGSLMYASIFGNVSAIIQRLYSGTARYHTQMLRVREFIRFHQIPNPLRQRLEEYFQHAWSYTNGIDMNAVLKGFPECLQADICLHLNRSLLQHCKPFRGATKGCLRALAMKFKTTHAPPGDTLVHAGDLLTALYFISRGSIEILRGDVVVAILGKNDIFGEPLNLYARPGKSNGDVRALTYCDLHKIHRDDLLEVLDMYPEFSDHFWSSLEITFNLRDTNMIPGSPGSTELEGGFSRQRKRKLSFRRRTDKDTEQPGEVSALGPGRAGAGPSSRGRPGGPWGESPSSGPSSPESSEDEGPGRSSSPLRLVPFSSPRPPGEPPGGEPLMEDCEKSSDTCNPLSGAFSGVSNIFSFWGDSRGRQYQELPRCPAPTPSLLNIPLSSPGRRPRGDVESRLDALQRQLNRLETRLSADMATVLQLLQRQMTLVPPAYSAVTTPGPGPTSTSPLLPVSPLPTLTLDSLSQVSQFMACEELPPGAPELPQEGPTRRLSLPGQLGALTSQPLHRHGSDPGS

[26] = molecular target: Sodium channel protein type 5 subunit alpha (Homo sapiens, UniProt Q14524); test: Inhibition of Nav1.5 (unknown origin)
Chain of Sodium channel protein type 5 subunit alpha (Q14524 whole entry): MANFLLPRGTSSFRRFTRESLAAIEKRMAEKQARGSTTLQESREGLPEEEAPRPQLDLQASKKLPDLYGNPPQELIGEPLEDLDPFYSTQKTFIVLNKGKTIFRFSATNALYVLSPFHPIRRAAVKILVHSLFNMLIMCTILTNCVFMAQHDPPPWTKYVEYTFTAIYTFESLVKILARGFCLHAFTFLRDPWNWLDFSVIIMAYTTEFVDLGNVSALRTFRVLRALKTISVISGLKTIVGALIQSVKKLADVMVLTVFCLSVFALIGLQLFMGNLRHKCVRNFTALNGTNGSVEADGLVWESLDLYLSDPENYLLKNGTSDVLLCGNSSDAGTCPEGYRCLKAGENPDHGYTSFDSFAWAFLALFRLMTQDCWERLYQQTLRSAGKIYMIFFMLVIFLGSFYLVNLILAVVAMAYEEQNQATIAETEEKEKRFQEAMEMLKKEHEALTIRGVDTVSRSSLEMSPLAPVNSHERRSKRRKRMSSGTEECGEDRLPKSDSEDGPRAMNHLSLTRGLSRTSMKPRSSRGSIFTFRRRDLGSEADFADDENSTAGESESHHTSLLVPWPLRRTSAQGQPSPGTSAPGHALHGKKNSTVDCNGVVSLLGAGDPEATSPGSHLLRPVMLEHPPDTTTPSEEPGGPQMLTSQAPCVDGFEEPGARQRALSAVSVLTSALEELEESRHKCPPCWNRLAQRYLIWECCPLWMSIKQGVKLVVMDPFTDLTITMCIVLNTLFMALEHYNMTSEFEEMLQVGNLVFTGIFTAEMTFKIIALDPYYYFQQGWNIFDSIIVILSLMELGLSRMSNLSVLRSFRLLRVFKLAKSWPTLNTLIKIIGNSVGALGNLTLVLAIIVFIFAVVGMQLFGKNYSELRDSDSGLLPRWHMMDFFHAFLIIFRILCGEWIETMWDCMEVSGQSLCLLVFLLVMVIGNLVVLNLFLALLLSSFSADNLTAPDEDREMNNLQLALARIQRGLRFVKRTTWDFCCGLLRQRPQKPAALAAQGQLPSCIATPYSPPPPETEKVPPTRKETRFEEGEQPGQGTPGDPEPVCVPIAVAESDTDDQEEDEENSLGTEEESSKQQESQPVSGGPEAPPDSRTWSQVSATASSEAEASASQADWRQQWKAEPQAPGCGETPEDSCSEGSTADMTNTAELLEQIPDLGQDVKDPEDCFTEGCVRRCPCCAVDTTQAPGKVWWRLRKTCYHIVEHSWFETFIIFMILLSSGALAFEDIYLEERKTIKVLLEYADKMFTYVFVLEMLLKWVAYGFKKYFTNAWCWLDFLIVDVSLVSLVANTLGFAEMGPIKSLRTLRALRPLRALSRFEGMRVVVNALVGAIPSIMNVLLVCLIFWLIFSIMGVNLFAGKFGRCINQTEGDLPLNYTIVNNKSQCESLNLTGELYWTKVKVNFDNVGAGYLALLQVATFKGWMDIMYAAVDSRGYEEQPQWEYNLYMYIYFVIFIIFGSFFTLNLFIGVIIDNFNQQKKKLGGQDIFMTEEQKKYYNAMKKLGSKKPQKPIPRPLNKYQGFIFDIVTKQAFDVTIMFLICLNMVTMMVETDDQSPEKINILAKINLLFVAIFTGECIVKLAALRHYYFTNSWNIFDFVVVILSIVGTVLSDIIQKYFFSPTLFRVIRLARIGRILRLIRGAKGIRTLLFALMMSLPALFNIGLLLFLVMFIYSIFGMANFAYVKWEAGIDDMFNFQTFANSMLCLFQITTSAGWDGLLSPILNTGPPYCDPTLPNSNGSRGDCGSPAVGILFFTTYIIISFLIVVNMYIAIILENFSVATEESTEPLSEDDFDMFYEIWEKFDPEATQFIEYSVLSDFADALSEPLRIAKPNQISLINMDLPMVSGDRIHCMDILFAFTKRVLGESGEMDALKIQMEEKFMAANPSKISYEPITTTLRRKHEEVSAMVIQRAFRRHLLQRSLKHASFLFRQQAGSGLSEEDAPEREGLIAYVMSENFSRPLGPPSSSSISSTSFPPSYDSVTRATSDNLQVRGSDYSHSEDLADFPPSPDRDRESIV

[27] = molecular target: Voltage-dependent L-type calcium channel subunit alpha-1C (Homo sapiens, UniProt Q13936); test: Inhibition of Cav1.2 (unknown origin)
Cytochrome P450 3A4 = Cytochrome P450 3A4 (Homo sapiens, UniProt P08684); test: Inhibition of CYP3A4 (unknown origin); type: ADME
Chain of Cytochrome P450 3A4 (P08684 whole entry): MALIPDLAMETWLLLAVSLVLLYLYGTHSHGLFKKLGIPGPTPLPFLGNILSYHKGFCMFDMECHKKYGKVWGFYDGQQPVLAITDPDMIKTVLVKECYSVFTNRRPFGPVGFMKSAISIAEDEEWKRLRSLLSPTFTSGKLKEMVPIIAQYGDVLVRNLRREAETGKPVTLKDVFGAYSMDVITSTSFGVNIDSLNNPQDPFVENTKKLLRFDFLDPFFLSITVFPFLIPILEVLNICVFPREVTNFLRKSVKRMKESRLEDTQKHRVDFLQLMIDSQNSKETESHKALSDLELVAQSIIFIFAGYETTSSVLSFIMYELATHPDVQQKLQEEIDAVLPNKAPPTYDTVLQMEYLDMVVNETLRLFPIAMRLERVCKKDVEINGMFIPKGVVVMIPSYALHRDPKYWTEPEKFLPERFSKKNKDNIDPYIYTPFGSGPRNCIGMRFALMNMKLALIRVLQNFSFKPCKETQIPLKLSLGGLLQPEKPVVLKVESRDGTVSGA

Cytochrome P450 2D6 = Cytochrome P450 2D6 (Homo sapiens, UniProt P10635); test: Inhibition of CYP2D6 (unknown origin); type: ADME
Chain of Cytochrome P450 2D6 (P10635 whole entry): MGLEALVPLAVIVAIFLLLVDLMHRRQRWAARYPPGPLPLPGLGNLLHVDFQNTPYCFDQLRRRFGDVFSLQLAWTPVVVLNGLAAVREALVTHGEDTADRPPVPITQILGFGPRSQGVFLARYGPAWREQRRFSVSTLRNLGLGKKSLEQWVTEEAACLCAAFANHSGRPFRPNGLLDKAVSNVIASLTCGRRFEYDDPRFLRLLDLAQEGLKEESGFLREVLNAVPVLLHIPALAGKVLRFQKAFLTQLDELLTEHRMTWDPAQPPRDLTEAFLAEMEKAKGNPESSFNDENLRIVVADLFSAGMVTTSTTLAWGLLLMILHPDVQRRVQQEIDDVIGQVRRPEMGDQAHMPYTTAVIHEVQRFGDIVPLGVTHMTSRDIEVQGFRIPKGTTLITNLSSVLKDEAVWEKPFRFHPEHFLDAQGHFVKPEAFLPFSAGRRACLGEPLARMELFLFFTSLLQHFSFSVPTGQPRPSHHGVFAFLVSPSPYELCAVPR

Cytochrome P450 2C9 = Cytochrome P450 2C9 (Homo sapiens, UniProt P11712); test: Inhibition of CYP2C9 (unknown origin); type: ADME
Chain of Cytochrome P450 2C9 (P11712 whole entry): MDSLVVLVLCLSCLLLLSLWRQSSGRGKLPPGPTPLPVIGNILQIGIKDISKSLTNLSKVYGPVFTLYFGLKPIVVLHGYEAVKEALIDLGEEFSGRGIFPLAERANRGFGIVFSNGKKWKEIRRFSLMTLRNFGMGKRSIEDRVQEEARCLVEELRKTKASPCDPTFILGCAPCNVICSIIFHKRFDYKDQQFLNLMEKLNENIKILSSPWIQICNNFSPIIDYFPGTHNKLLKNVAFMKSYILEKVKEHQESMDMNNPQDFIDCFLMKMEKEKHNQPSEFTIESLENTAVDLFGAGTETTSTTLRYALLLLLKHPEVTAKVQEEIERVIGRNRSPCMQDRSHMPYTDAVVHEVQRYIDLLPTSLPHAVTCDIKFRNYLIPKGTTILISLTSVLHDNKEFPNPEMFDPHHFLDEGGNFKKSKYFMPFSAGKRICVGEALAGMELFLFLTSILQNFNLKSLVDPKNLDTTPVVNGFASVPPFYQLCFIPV

[28] = molecular target: T4, Nuclear receptor subfamily 1 group I member 2 (Homo sapiens, UniProt O75469); test: Activation of PXR (unknown origin) assessed as CYP3A4 induction
T4 sequence (O75469 whole entry): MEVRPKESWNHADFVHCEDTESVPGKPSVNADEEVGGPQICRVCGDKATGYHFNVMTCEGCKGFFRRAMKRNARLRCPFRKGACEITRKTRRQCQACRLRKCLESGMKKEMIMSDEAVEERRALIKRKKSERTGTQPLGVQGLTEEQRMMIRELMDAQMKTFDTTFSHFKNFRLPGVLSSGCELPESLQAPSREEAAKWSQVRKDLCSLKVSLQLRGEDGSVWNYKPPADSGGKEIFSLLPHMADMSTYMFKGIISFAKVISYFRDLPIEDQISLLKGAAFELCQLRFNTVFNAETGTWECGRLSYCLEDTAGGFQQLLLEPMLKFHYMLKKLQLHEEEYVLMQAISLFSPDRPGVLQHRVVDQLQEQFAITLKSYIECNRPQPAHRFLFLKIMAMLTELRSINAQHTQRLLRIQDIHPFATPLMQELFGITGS

[29] = Fraction unbound in human plasma; type: ADME, cell-free

CN(C)C1=N[C@@H]2[C@@H](O)[C@H](O)[C@@H](C(F)F)O[C@@H]2S1
AUC [1]: 4.89 nM·h/g
fold change (FC) (Rattus norvegicus [2]): 34.18
fold change (FC) (Rattus norvegicus [3]): 2.83
Tmax [4]: 12 h
Papp (MDR1): 14 ×10⁻⁶ cm/s
fraction unbound at 2.5 µM [5]: > 0.99
Ki (Protein O-GlcNAcase [6]): 0.0024 µM
EC50 (Protein O-GlcNAcase [7]): 0.0312 µM
Ki [8]: 3.9 µM
fraction unbound at 2.5 µM [9]: 0.95
AUC/dose [10]: 0.43 µM·kg·h/mg
clearance [11]: 70.5 mL/min/kg
half-life [12]: 3.81 h
Vd [13]: 10.3 L/kg
bioavailability [14]: 49.7%
fold change (FC) (Rattus norvegicus [15]): 2.53
fold change (FC) (Rattus norvegicus [16]): 2.57
Drug uptake [17]: 0.147 nmol/g
Drug uptake [18]: 0.049 nmol/g
Kp at 8 h [19]: 1.56
Kp at 24 h [20]: 3.03

CCNC1=N[C@@H]2[C@@H](O)[C@H](O)[C@@H](CO)O[C@@H]2S1
AUC [1]: 1.14 nM·h/g
Tmax [4]: 8 h
Papp (MDR1): ≤ 1 ×10⁻⁶ cm/s
Kp [21]: 0.1
fraction unbound at 2.5 µM [5]: 0.76
Ki [8]: > 10 µM
fraction unbound at 2.5 µM [9]: 0.73
AUC/dose [22]: 0.8 µM·kg·h/mg
clearance [11]: 25 mL/min/kg
half-life [12]: 1.4 h
Vd [23]: 1.5 L/kg
bioavailability [24]: 30%
Drug uptake [17]: 0.185 nmol/g
Drug uptake [18]: 0.051 nmol/g
Kp at 8 h [19]: 0.94
Kp at 24 h [20]: > 2.7
IC50 [25]: > 30 µM
IC50 [26]: > 30 µM
IC50 [27]: > 30 µM
IC50 (Cytochrome P450 3A4): > 50 µM
IC50 (Cytochrome P450 2D6): > 50 µM
IC50 (Cytochrome P450 2C9): > 50 µM
EC50 [28]: > 30 µM
fraction unbound [29]: 0.76
